Assay: MALDI-TOF screening of Ni^2+ dependent hydrolysis in a combinatorial peptide library
Assay type: physicochemical
Details: Ni^2+ 2 mM, pH 8.2, 10 mM Tris, score=24/tm
How it was run: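 MALDI-TOF spectra taken at 2, 4, 6 and 8 h tracked the appearance of Ser/Thr-X-His-Z-Lys-Phe-Leu-NH2 cleavage products and the fall in substrate signals. Reactions: 1 mM peptide mixture, 2 mM Ni^2+, 10 mM Tris pH 8.2, at 37 or 45 °C; X/Z substitutions ranked by summed scores.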

[1] = CH3CO-Gly-Ala-Thr-X-His-Z-Lys-Phe-Leu-NH2 library, 37° C.
[2] = CH3CO-Gly-Ala-Thr-X-His-Z-Lys-Phe-Leu-NH2 library, 45° C.
[3] = CH3CO-Gly-Ala-Ser-X-His-Z-Lys-Phe-Leu-NH2 library, 37° C.
[4] = CH3CO-Gly-Ala-Ser-X-His-Z-Lys-Phe-Leu-NH2 library, 45° C.

Substance	hydrolysis score from MALDI-TOF screening [1]	hydrolysis score from MALDI-TOF screening [2]	hydrolysis score from MALDI-TOF screening [3]	hydrolysis score from MALDI-TOF screening [4]
Ac-GATGHVKFL-NH2 [TGHV]	0 (a score of 0 if no trace of the product of hydrolysis was seen after 8 hours of incubation)	0 (a score of 0 if no trace of the product of hydrolysis was seen after 8 hours of incubation)	–	–
Ac-GATTHHKFL-NH2 [TTHH]	0 (a score of 0 if no trace of the product of hydrolysis was seen after 8 hours of incubation)	0 (a score of 0 if no trace of the product of hydrolysis was seen after 8 hours of incubation)	–	–
Ac-GATYHHKFL-NH2 [TYHH]	0 (a score of 0 if no trace of the product of hydrolysis was seen after 8 hours of incubation)	0 (a score of 0 if no trace of the product of hydrolysis was seen after 8 hours of incubation)	–	–
Ac-GATNHPKFL-NH2 [TNHP]	0 (a score of 0 if no trace of the product of hydrolysis was seen after 8 hours of incubation)	0 (a score of 0 if no trace of the product of hydrolysis was seen after 8 hours of incubation)	–	–
Ac-GASTHWKFL-NH2 [STHW]	–	–	4 (a score of 4 for detection at 6 hours)	6 (a score of 6 for detection at 4 hours)
Ac-GASGHMKFL-NH2 [SGHM]	–	–	0 (a score of 0 if no trace of the product of hydrolysis was seen after 8 hours of incubation)	0 (a score of 0 if no trace of the product of hydrolysis was seen after 8 hours of incubation)
Ac-GATAHRKFL-NH2 [TAHR]	0 (a score of 0 if no trace of the product of hydrolysis was seen after 8 hours of incubation)	0 (a score of 0 if no trace of the product of hydrolysis was seen after 8 hours of incubation)	–	–
Ac-GATTHYKFL-NH2 [TTHY]	0 (a score of 0 if no trace of the product of hydrolysis was seen after 8 hours of incubation)	0 (a score of 0 if no trace of the product of hydrolysis was seen after 8 hours of incubation)	–	–
Ac-GASKHHKFL-NH2 [SKHH]	–	–	4 (a score of 4 for detection at 6 hours)	3 (a score of 3 for detection at 8 hours)
Ac-GATWHDKFL-NH2 [TWHD]	0 (a score of 0 if no trace of the product of hydrolysis was seen after 8 hours of incubation)	0 (a score of 0 if no trace of the product of hydrolysis was seen after 8 hours of incubation)	–	–
Ac-GATKHFKFL-NH2 [TKHF]	3 (a score of 3 for detection at 8 hours)	6 (a score of 6 for detection at 4 hours)	–	–
Ac-GATRHMKFL-NH2 [TRHM]	3 (a score of 3 for detection at 8 hours)	4 (a score of 4 for detection at 6 hours)	–	–
Ac-GATKHHKFL-NH2 [TKHH]	0 (a score of 0 if no trace of the product of hydrolysis was seen after 8 hours of incubation)	4 (a score of 4 for detection at 6 hours)	–	–
Ac-GATWHHKFL-NH2 [TWHH]	0 (a score of 0 if no trace of the product of hydrolysis was seen after 8 hours of incubation)	0 (a score of 0 if no trace of the product of hydrolysis was seen after 8 hours of incubation)	–	–
Ac-GATPHQKFL-NH2 [TPHQ]	–	0 (a score of 0 if no trace of the product of hydrolysis was seen after 8 hours of incubation)	–	–
Ac-GATPHLKFL-NH2 [TPHL]	–	0 (a score of 0 if no trace of the product of hydrolysis was seen after 8 hours of incubation)	–	–
Ac-GATYHTKFL-NH2 [TYHT]	0 (a score of 0 if no trace of the product of hydrolysis was seen after 8 hours of incubation)	0 (a score of 0 if no trace of the product of hydrolysis was seen after 8 hours of incubation)	–	–
Ac-GASPHAKFL-NH2 [SPHA]	–	–	0 (a score of 0 if no trace of the product of hydrolysis was seen after 8 hours of incubation)	0 (a score of 0 if no trace of the product of hydrolysis was seen after 8 hours of incubation)
Ac-GASTHGKFL-NH2 [STHG]	–	–	0 (a score of 0 if no trace of the product of hydrolysis was seen after 8 hours of incubation)	0 (a score of 0 if no trace of the product of hydrolysis was seen after 8 hours of incubation)
Ac-GASGHFKFL-NH2 [SGHF]	–	–	0 (a score of 0 if no trace of the product of hydrolysis was seen after 8 hours of incubation)	0 (a score of 0 if no trace of the product of hydrolysis was seen after 8 hours of incubation)

Substance	hydrolysis score from MALDI-TOF screening [1]	hydrolysis score from MALDI-TOF screening [2]	hydrolysis score from MALDI-TOF screening [3]	hydrolysis score from MALDI-TOF screening [4]
Ac-GASQHMKFL-NH2 [SQHM]	–	–	0 (a score of 0 if no trace of the product of hydrolysis was seen after 8 hours of incubation)	3 (a score of 3 for detection at 8 hours)
Ac-GATAHQKFL-NH2 [TAHQ]	0 (a score of 0 if no trace of the product of hydrolysis was seen after 8 hours of incubation)	0 (a score of 0 if no trace of the product of hydrolysis was seen after 8 hours of incubation)	–	–
Ac-GATTHIKFL-NH2 [TTHI]	0 (a score of 0 if no trace of the product of hydrolysis was seen after 8 hours of incubation)	0 (a score of 0 if no trace of the product of hydrolysis was seen after 8 hours of incubation)	–	–
Ac-GATIHKKFL-NH2 [TIHK]	0 (a score of 0 if no trace of the product of hydrolysis was seen after 8 hours of incubation)	3 (a score of 3 for detection at 8 hours)	–	–
Ac-GASVHWKFL-NH2 [SVHW]	–	–	4 (a score of 4 for detection at 6 hours)	4 (a score of 4 for detection at 6 hours)
Ac-GASKHMKFL-NH2 [SKHM]	–	–	3 (a score of 3 for detection at 8 hours)	4 (a score of 4 for detection at 6 hours)
Ac-GATVHKKFL-NH2 [TVHK]	0 (a score of 0 if no trace of the product of hydrolysis was seen after 8 hours of incubation)	0 (a score of 0 if no trace of the product of hydrolysis was seen after 8 hours of incubation)	–	–
Ac-GASHHNKFL-NH2 [SHHN]	–	–	0 (a score of 0 if no trace of the product of hydrolysis was seen after 8 hours of incubation)	0 (a score of 0 if no trace of the product of hydrolysis was seen after 8 hours of incubation)
Ac-GATRHWKFL-NH2 [TRHW]	12 (a score of 12, if it was seen to be partially hydrolysed at 2 hours)	12 (a score of 12, if it was seen to be partially hydrolysed at 2 hours)	–	–
Ac-GASWHPKFL-NH2 [SWHP]	–	–	0 (a score of 0 if no trace of the product of hydrolysis was seen after 8 hours of incubation)	0 (a score of 0 if no trace of the product of hydrolysis was seen after 8 hours of incubation)
Ac-GATGHYKFL-NH2 [TGHY]	0 (a score of 0 if no trace of the product of hydrolysis was seen after 8 hours of incubation)	0 (a score of 0 if no trace of the product of hydrolysis was seen after 8 hours of incubation)	–	–
Ac-GATHHAKFL-NH2 [THHA]	0 (a score of 0 if no trace of the product of hydrolysis was seen after 8 hours of incubation)	4 (a score of 4 for detection at 6 hours)	–	–
Ac-GASTHLKFL-NH2 [STHL]	–	–	4 (a score of 4 for detection at 6 hours)	6 (a score of 6 for detection at 4 hours)
Ac-GATTHLKFL-NH2 [TTHL]	0 (a score of 0 if no trace of the product of hydrolysis was seen after 8 hours of incubation)	0 (a score of 0 if no trace of the product of hydrolysis was seen after 8 hours of incubation)	–	–
Ac-GATSHYKFL-NH2 [TSHY]	0 (a score of 0 if no trace of the product of hydrolysis was seen after 8 hours of incubation)	0 (a score of 0 if no trace of the product of hydrolysis was seen after 8 hours of incubation)	–	–
Ac-GASMHDKFL-NH2 [SMHD]	–	–	0 (a score of 0 if no trace of the product of hydrolysis was seen after 8 hours of incubation)	0 (a score of 0 if no trace of the product of hydrolysis was seen after 8 hours of incubation)
Ac-GASFHPKFL-NH2 [SFHP]	–	–	0 (a score of 0 if no trace of the product of hydrolysis was seen after 8 hours of incubation)	0 (a score of 0 if no trace of the product of hydrolysis was seen after 8 hours of incubation)
Ac-GATKHAKFL-NH2 [TKHA]	0 (a score of 0 if no trace of the product of hydrolysis was seen after 8 hours of incubation)	3 (a score of 3 for detection at 8 hours)	–	–
Ac-GASAHYKFL-NH2 [SAHY]	–	–	0 (a score of 0 if no trace of the product of hydrolysis was seen after 8 hours of incubation)	3 (a score of 3 for detection at 8 hours)
